Where “and” joins values, the source holds several entries; their conditions need not be identical. Identical values can stand only once.
Legend:
Conditions in all cases: incubation time: 72 h
[1] = tested on: DU-4475; test: normalised viability (% of control), CellTiter-Blue; higher = more viable cells (about 100 = DMSO control)
Method in brief: (§1)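 Plates were quality-checked by Z'-factor and normalised to vehicle (100) and a positive kill control (0). The underlying assay incubated breast cancer cell lines for 72 h on 384-well plates with compound, then added 2.5 µl CellTiter-Blue for 2 h at 37 °C and read at 560/590 nm. The value is normalised viability at a single listed concentration of the series.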

[2] = tested on: HCC1937; test: as above
Method in brief: as §1

[3] = tested on: MDA-MB-231; test: drug sensitivity score (DSS), CellTiter-Blue viability (DSS (AUC-based score)); higher = stronger viability inhibition; extreme values may be limits of the assay
Method: (§2)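 DSRT with the CellTiter-Blue (resazurin reduction) viability readout, fluorescence 560/590 nm, 72 h incubation. Plates were normalised to DMSO and benzethonium chloride controls. DSS is computed from the area under the fitted dose-response curve (5 or 9 concentrations).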

[4] = tested on: BT-549; test: as above
Method: as §2

[5] = tested on: HDQ-P1; test: as above
Method: as §2

[6] = tested on: CAL-51; test: as above
Method: as §2

[7] = tested on: DU-4475; test: as above
Method: as §2

[8] = tested on: Hs578T; test: as above
Method: as §2

[9] = tested on: MDA-MB-453; test: as above
Method: as §2

[10] = tested on: CAL-85-1; test: as above
Method: as §2

[11] = tested on: SK-BR-3; test: as above
Method: as §2

[12] = tested on: MFM-223; test: as above
Method: as §2

[13] = tested on: HCC1599; test: as above
Method: as §2

[14] = tested on: HCC1143; test: as above
Method: as §2

[15] = tested on: CAL-148; test: as above
Method: as §2

[16] = tested on: MDA-MB-436; test: as above
Method: as §2

[17] = tested on: BT-474; test: as above
Method: as §2

[18] = tested on: HCC1937; test: as above
Method: as §2

[19] = tested on: CAL-120; test: as above
Method: as §2

[20] = tested on: MDA-MB-468; test: as above
Method: as §2

[21] = tested on: BT-549; test: drug sensitivity score (DSS), CellTox Green (DSS (AUC-based score)); higher = stronger drug effect (viability inhibition or cytotoxicity); extreme values may be limits of the assay
Method in brief: (§3)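 Plates with 384 wells held compound at 5 concentrations in 10-fold steps over a 10,000-fold range specific to each compound. Breast cancer cell lines were added in 20 µl suspension and incubated 72 h, then read for CellTox Green and CellTiter-Glo signals, with each plate normalised to 0.1 % DMSO and a positive kill control. The drug sensitivity score is based on the area under the fitted dose-response curve.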

[22] = tested on: HDQ-P1; test: as above
Method in brief: as §3

[23] = tested on: MFM-223; test: as above
Method in brief: as §3

[24] = tested on: CAL-148; test: as above
Method in brief: as §3

Compound: Nc1cc(C(F)(F)F)c(-c2cc(N3CCOCC3)nc(N3CCOCC3)n2)cn1 [BKM-120]
- normalised viability ([1]; 3 nM): 104%
- normalised viability ([1]; 30 nM): 93.3%
- normalised viability ([1]; 100 nM): 101%
- normalised viability ([2]; 10 nM): 121%
- normalised viability ([2]; 1000 nM): 87.9%
- normalised viability ([2]; 10000 nM): 13.7%
- drug sensitivity score [3]: 8.24
- drug sensitivity score [4]: 8.93
- drug sensitivity score [5]: 9.78
- drug sensitivity score [6]: 11.6
- drug sensitivity score [7]: 6.63
- drug sensitivity score [8]: 5.79
- drug sensitivity score [9]: 13.8
- drug sensitivity score [10]: 9.38
- drug sensitivity score [11]: 16.8
- drug sensitivity score [12]: 9.9
- drug sensitivity score [13]: 8.97
- drug sensitivity score [14]: 5.44
- drug sensitivity score [15]: 8.55
- drug sensitivity score [16]: 4.25
- drug sensitivity score [17]: 9.72
- drug sensitivity score [18]: 6.85
- drug sensitivity score [19]: 8.37
- drug sensitivity score [20]: 6.64

Compound: O=C(/C=C/c1cccc(S(=O)(=O)Nc2ccccc2)c1)NO [Belinostat]
- normalised viability ([1]; 3 nM): 99.9%
- normalised viability ([1]; 30 nM): 106%
- normalised viability ([1]; 100 nM): 98.7%
- normalised viability ([2]; 10 nM): 46.4%
- normalised viability ([2]; 1000 nM): 41.4%
- normalised viability ([2]; 10000 nM): 15.1%
- drug sensitivity score [21]: 0
- drug sensitivity score [22]: 0
- drug sensitivity score [23]: 4.75
- drug sensitivity score [24]: 8.43
- drug sensitivity score [3]: 12.5
- drug sensitivity score [4]: 8.08
- drug sensitivity score [5]: 11.8
- drug sensitivity score [6]: 10.6
- drug sensitivity score [7]: 15
- drug sensitivity score [8]: 8.1
- drug sensitivity score [9]: 22.4
- drug sensitivity score [10]: 12.2
- drug sensitivity score [11]: 19
- drug sensitivity score [12]: 12.7
- drug sensitivity score [13]: 14.6
- drug sensitivity score [14]: 10.3
- drug sensitivity score [15]: 17.1
- drug sensitivity score [16]: 12.2
- drug sensitivity score [17]: 11.8
- drug sensitivity score [18]: 12.3
- drug sensitivity score [19]: 19
- drug sensitivity score [20]: 8.06

Compound: Nc1cc(C(F)(F)F)c(-c2cc(N3CCOCC3)nc(N3CCOCC3)n2)cn1 [Buparlisib]
- drug sensitivity score [21]: 1.91
- drug sensitivity score [22]: 0
- drug sensitivity score [23]: 0
- drug sensitivity score [24]: 0

Compound: CNC(=O)c1ccc(N2C(=S)N(c3ccc(C#N)c(C(F)(F)F)c3)C(=O)C2(C)C)cc1F [Enzalutamide]
- drug sensitivity score [21]: 0
- drug sensitivity score [22]: 0
- drug sensitivity score [23]: 0
- drug sensitivity score [24]: 0

Compound: CCOC(=O)CCNc1cc(N2CCc3ccccc3CC2)nc(-c2ccccn2)n1 [GSK-J4]
- drug sensitivity score [21]: 7.69
- drug sensitivity score [22]: 11.6
- drug sensitivity score [23]: 8.73
- drug sensitivity score [24]: 10.9

Compound: Cc1cc(Nc2cc(CN3CCOCC3)c3nc(C)c(Cc4ccc(Cl)cc4F)n3n2)n[nH]1 [Gandotinib]
- drug sensitivity score [21]: 0
- drug sensitivity score [22]: 0
- drug sensitivity score [23]: 0
- drug sensitivity score [24]: 0

Compound: COc1cc2ncnc(Nc3ccc(F)c(Cl)c3)c2cc1OCCCN1CCOCC1 [Gefitinib]
- normalised viability ([1]; 3 nM): 89.8% and 92.1%
- normalised viability ([1]; 30 nM): 85.6% and 75.6%
- normalised viability ([1]; 100 nM): 99.3% and 83.1%
- normalised viability ([2]; 1000 nM): 101% and 100%
- normalised viability ([2]; 10000 nM): 61.1% and 79.5%
- drug sensitivity score [21]: 0
- drug sensitivity score [22]: 0
- drug sensitivity score [23]: 0
- drug sensitivity score [24]: 2.34
- drug sensitivity score [4]: 2.48 and 0.865
- drug sensitivity score [6]: 0
- drug sensitivity score [7]: 0
- drug sensitivity score [9]: 3.14 and 5.26
- drug sensitivity score [10]: 8.75 and 10.2
- drug sensitivity score [11]: 6.49 and 10.4
- drug sensitivity score [12]: 0
- drug sensitivity score [13]: 2.82 and 3.43
- drug sensitivity score [14]: 0
- drug sensitivity score [15]: 2.15 and 4.81
- drug sensitivity score [16]: 0
- drug sensitivity score [17]: 9.05 and 8.8
- drug sensitivity score [18]: 0
- drug sensitivity score [20]: 9.52 and 7.51

Compound: CCc1c2c(nc3ccc(OC(=O)N4CCC(N5CCCCC5)CC4)cc13)-c1cc3c(c(=O)n1C2)COC(=O)[C@]3(O)CC [Irinotecan]
- normalised viability ([1]; 3 nM): 111% and 115%
- normalised viability ([1]; 30 nM): 87.3% and 103%
- normalised viability ([1]; 100 nM): 101% and 93.7%
- normalised viability ([2]; 10 nM): 110% and 91.4%
- normalised viability ([2]; 1000 nM): 54.7% and 60.4%
- normalised viability ([2]; 10000 nM): 27.8% and 10.4%
- drug sensitivity score [21]: 0
- drug sensitivity score [22]: 0
- drug sensitivity score [23]: 0
- drug sensitivity score [24]: 11.8
- drug sensitivity score [6]: 6.14 and 4.1
- drug sensitivity score [7]: 7.9 and 5.68
- drug sensitivity score [8]: 0
- drug sensitivity score [10]: 2.57 and 1.55
- drug sensitivity score [11]: 6.6 and 2.45
- drug sensitivity score [15]: 9.3 and 7.24
- drug sensitivity score [17]: 0
- drug sensitivity score [18]: 9.68 and 9.91
- drug sensitivity score [19]: 5.49 and 3.99
- drug sensitivity score [20]: 6.9 and 5.16

Compound: COC(=O)c1ccc2c(c1)NC(=O)/C2=C(\Nc1ccc(N(C)C(=O)CN2CCN(C)CC2)cc1)c1ccccc1 [Nintedanib]
- drug sensitivity score [21]: 2.06
- drug sensitivity score [22]: 0
- drug sensitivity score [23]: 0
- drug sensitivity score [24]: 0

Compound: O=C(Nc1cccnc1)N1CCC(Cc2cccc(Oc3ccc(C(F)(F)F)cn3)c2)CC1 [PF-3845]
- normalised viability ([1]; 3 nM): 90.2%
- normalised viability ([1]; 30 nM): 90.7%
- normalised viability ([1]; 100 nM): 87.6%
- normalised viability ([2]; 10 nM): 122%
- normalised viability ([2]; 1000 nM): 108%
- normalised viability ([2]; 10000 nM): 97.2%
- drug sensitivity score [21]: 0
- drug sensitivity score [23]: 0
- drug sensitivity score [24]: 0
- drug sensitivity score [3]: 0
- drug sensitivity score [4]: 4.79
- drug sensitivity score [5]: 0
- drug sensitivity score [6]: 0.908
- drug sensitivity score [7]: 0
- drug sensitivity score [8]: 0.892
- drug sensitivity score [9]: 4.35
- drug sensitivity score [10]: 0
- drug sensitivity score [11]: 0
- drug sensitivity score [12]: 0
- drug sensitivity score [13]: 0
- drug sensitivity score [14]: 0
- drug sensitivity score [15]: 0
- drug sensitivity score [16]: 0
- drug sensitivity score [17]: 1.39
- drug sensitivity score [18]: 0
- drug sensitivity score [19]: 0
- drug sensitivity score [20]: 0.694

Compound: CNC(=O)c1ccc(N2C(=S)N(c3ccc(C#N)c(C(F)(F)F)c3)C(=O)C23CCC3)cc1F [RD162]
- drug sensitivity score [21]: 0
- drug sensitivity score [22]: 0
- drug sensitivity score [23]: 0
- drug sensitivity score [24]: 0

Compound: COc1cc2c(NC3CCN(C(C)C)CC3)nc(N3CCC(F)(F)CC3)nc2cc1OCCCN1CCCC1 [UNC0642]
- drug sensitivity score [21]: 0
- drug sensitivity score [22]: 0
- drug sensitivity score [23]: 0
- drug sensitivity score [24]: 2.77

Reference: the supplement of paper PMC4862054
